Measurements as given in patent publication US7034005B2, “Use of agent for suppressing infection and proliferation of human immunodeficiency syndrome virus” (The Kitasato Institute, priority 2002, dated 2006).

Key:
[1] = tested on: HIV-1BAL strain in GM type macrophage (GM-MΦ) derived from human monocytes; test: Proliferation of HIV-1 in GM-MΦ: p24 protein in culture supernatant by sandwich ELISA; assay type: cell-based; settings: for viral generation in GM-MΦ: 30 μM, HIV-1BAL, all assay points up to 14 days, similar to DMSO control (FIG. 14)
Description: (§1) Macrophages derived from monocytes were prepared by culturing the recovered monocytes in the presence of M-CSF (macrophage colony-stimulating factor) (10^4 U/ml, provided by Morinaga Milk Co.), granulocytes and granulocyte-macrophage colony-stimulating factor, GM-CSF) (500 U/ml, provided by Japan Scheling Plough Co., Osaka, or purchased from R & S Genzyme-TECHNE Inc.) with RPMI1640 medium added with FCS10% (Nissui Seiyaku Co., Tokyo) for 7–8 days.
(§2) The macrophage prepared by differential induction of M-CSF from human monocytes is designated as M type macrophage (M type MΦ or M-MΦ) and the macrophage prepared by differential induction of GM-CSF from human monocytes is designated as GM type macrophage (GM type MΦ or GM-MΦ) Further, alveolar macrophage (alveolar MΦ or A-MΦ) was prepared as follows. Cells in the alveolar lavage liquid obtained from the alveolar lavage of healthy volunteers were recovered, suspended and adhered to plastics, then the non-adhered cells were washed out and the remained adhered cells were designated as the alveolar MΦ.
(§3) Infection of HIV-1 to macrophage was performed as follows. Macrophage directed viral strains, HIV-1JR-FL and HIV-1BAL, were infected for 2 hours in contact with M-MΦ, GM-MΦ and A-MΦ (adjusted to 2.5×10^5/well, Flacon No3043: Becton Dickinson Labware, Inc. U.S.)at low concentration (p24 antigen titer 50 ng/ml, TCID50=3000/ml virus to final concentration at 100 pg/ml), and non-adsorbed virus to the macrophage was washed out, and cultured with adding fresh medium. In case of the medium with M-MΦ, M-CSF was added (10^4 U/ml), and that of the medium with GM-MΦ, GM-CSF was added (500 U/ml).
(§4) Proliferation of virus was examined with the released viral particles in the culture supernatant after the infection by the sandwich ELISA using two types of anti-p24 antibody (Nu24 and 10B5^13). The following JAM62 and JAM65 were used as LTR (HIV long terminal repeat)-gap gene primer. The following JAM63 and JAM 64 were used as the internal primer for the nested PCR. • JAM62: • 5′-[…]-3′ (SEQ ID NO: 1) • JAM65: • 5′-[…]-3′ (SEQ ID NO: 2) • JAM63: • 5′-GTGTOACTCTGGTAACTAGAGATCC-3′ (SEQ ID NO: 3) • JAM64: • 5′-[…]-3′ (SEQ ID NO: 4) (1-4) Assay of Expression of Tyrosine Kinase Hck Protein and Transcription Factor C/EBPβ Protein
(§5) In order to show growth suppression effect of the present invention, among macrolide derivatives, EM, EM201, EM202, EM703, CAM, EM722, EM730, EM732, EM736, EM734, EM735, EM747, EM748, EM743, EM746, EM750 or EM751 was dissolved in DMSO with each 100 mM concentration, and used in dilution with the medium thereafter. A control group was M-MΦ treated only with DMSO used for dissolving macrolide derivatives.
(§6) M-MΦ and GM-M Φ were subjected to contact infection with HIV-1BAL strain for 2 hours, added 30 μM of EM, EM201, EM202, EM703, CAM,EM722, EM730, EM732, EM736, EM734, EM735, EM747, EM748, EM743, EM746, EM750 or EM751, incubated for 14 days and amount of p24 protein in the cultured supernatant was assayed in the time-dependent manner.

[2] = tested on: transcription factor C/EBPβ protein; test: Expression of C/EBPβ protein in GM-MΦ by Western blotting; assay type: cell-based, human; settings: oligonucleotide treated GM-MΦ (FIG. 11)
Excerpt: (§7) Expression of tyrosine kinase Hck protein and transcription factor C/EBPβ protein in macrophage was examined after solubilizing the macrophage in SDS-PAGE sample buffer, performing 10% SDS-polyacrylamide electrophoresis, transferring the protein on the gel to immobilon P membrane (Millipore Inc. U.S.) and checking antibodies against these proteins by Western blotting. Antibody to tyrosine kinase Hck protein (N-30) and antibody to C/EBPβ (C-19) were purchased from Santacluse Inc. (U.S.). Western blotting was detected by Amersham ELC Regent (Amersham International plc, Buckinghamshire, UK). Strength of bands was expressed by PSL (photostimulating luminescence) value (A/mm^2).
(§8) These probes were dissolved in the serum free RPMI1640 medium, in which lipofectin (Life Technology Inc., U.S.) was dissolved at 5 μM concentration, at room temperature for 30 minutes, added with RPMI1640 medium, which contains 10% FCS, to the macrophage (final concentration 2 μM) and incubated at 37° C. for 24 hours. Thereafter, cells were washed with the medium, added the RPMI1640 medium containing 10% FCS without oligonucleotide, further cultured for 24 hours, and then infected with HIV-1.

p38MAPK = test: Tyrosine phosphorylation (activation) of p38MAPK in HIV-1 infected M-MΦ by Western blotting; assay type: cell-based, human; settings: 30 μM, day 2 of culture, HIV-1BAL infected M-MΦ, compared with DMSO (FIG. 19(A))
Description: (§9) P38MAPK and ERK1/2 activation were determined using P38MAPK antibody, anti-ERK1/2 antibody, anti-tyrosine phosphorylation P38MAPK antibody and anti-tyrosine phosphorylation ERK1/2 antibody (New England Biolabs, Inc. U.S.), and phosphorylation reaction of these molecules was determined by Western blotting.
Thirty μM of EM, EM201, EM202, EM703 or CAM were added to M-MΦ infected with HIV-1BAL strain, tyrosine phosphorylation of p38MAPK was detected on day 2 of the culture by Western blotting. […] In any groups, total amount of p38MAPK (total sum of phosphorylated and non-phosphorylated p38MARK) was equal.

ERK1/2 = test: Tyrosine phosphorylation (activation) of ERK1/2 in HIV-1 infected M-MΦ by Western blotting; assay type: cell-based, human; settings: 30 μM, HIV-1BAL infected M-MΦ, compared with DMSO (FIG. 19(B))
Description: as §9
In any groups, total amount of ERK1/2 (total sum of phosphorylated and non-phosphorylated p38MARK) was equal [refer to FIG. 19(B)].

[3] = tested on: HIV-1BAL strain in M type macrophage (M-MΦ) derived from human monocytes; test: Proliferation of HIV-1 in M-MΦ: p24 protein in culture supernatant by sandwich ELISA; assay type: cell-based; settings: for suppression of viral generation (p24 in culture supernatant) in M-MΦ: 30 μM, HIV-1BAL, 14 days of culture, compared with DMSO control (FIG. 13); for viral proliferation at 300 μM in M-MΦ: also observed in DMSO control, ascribed to cytotoxicity of DMSO; for concentration dependence of suppressive action on HIV-1BAL in M-MΦ: various concentrations (FIG. 16)
Description: as §1, §2, §3, §4, §5, §6

[4] = tested on: HIV-1BAL strain infected M-MΦ; test: Cytopathy (MGC formation) of HIV-1 infected M-MΦ; assay type: cell-based, human; settings: 30 μM, HIV-1BAL (FIG. 17)
Description: Formation of cell cluster and cell fusion was observed from the 2nd day of the incubation only in virus producing M-MΦ and formation of multinucleatic giant cells were recognized from the culture day 4–7 [refer to FIG. 2(A)]. On the other hand, in GM-MΦ without generation of virus, nomorphological changes were observed [refer to FIG. 2(B)].
M-MΦ was subjected to contact infection with HIV-1BAL strain for 2 hours, added 30 μM of EM, EM201, EM202, EM703 or CAM, incubated and observed the cell morphology.

[5] = tested on: tyrosine kinase Hck protein; test: Expression of tyrosine kinase Hck protein in M-MΦ by Western blotting; assay type: cell-based, human; settings: 30 μM, day 2 after HIV-1BAL infection, compared with DMSO control (FIG. 18)
Excerpt: as §7, §8
Consequently, M-MΦ was subjected to contact infection with HIV-1BAL strain for 2 hours, added 30 μM of EM, EM201, EM202, EM703 or CAM, incubated and expression of tyrosine kinase Hck protein was observed on day 2 after the infection by Western blotting.

Molecule	HIV-1 growth promotion (p24 in culture supernatant) in oligonucleotide pretreated GM-MΦ ([1]; HIV-1 infection after pretreatment (FIG. 12))	changes in expression of C/EBPβ in GM-MΦ [2]	tyrosine phosphorylation of p38MAPK (p38MAPK)	viral generation in GM-MΦ [1]	tyrosine phosphorylation of ERK1/2 (ERK1/2)	suppression of viral generation (p24 in culture supernatant) in M-MΦ [3]	viral proliferation at 300 μM in M-MΦ [3]	concentration dependence of suppressive action on HIV-1BAL in M-MΦ [3]	cytopathic effect (MGC formation) in HIV-1 infected M-MΦ [4]	expression of tyrosine kinase Hck protein in HIV-1 infected M-MΦ [5]	proliferation of virus in M-MΦ at 3 μM ([3]; 3 μM)
C/EBPβ-S: Phosphorothioate-modified sense oligonucleotide probe of C/EBPβ, 5′-CCGCGTTCATOCAACOCCTG-3′ (SEQ ID NO: 9) (sense CCGCGTTCATGCAACGCCTG; all phosphorothioate, sugars by position and methylation of C not given here) [reference compound]	not recognized	not recognized									
CC[C@H]1OC(=O)[C@H](C)[C@@H](O[C@H]2C[C@@](C)(OC)[C@@H](O)[C@H](C)O2)[C@H](C)[C@@H](O[C@@H]2O[C@H](C)C[C@H](N(C)C)[C@H]2O)[C@](C)(OC)C[C@@H](C)C(=O)[C@H](C)[C@@H](O)[C@]1(C)O [CAM, Oxacyclotetradecane-2,10-dione,4-[(2,6-dideoxy-3-O-methyl-α-L-ribo-hexopyranosyl)oxy]-14-ethyl-12,13-dihydroxy-7-methoxy-3,5,7,9,11,13-hexamethyl-6-[[3,4,6-trideoxy-3-(dimethylamino)-β-D-xylo-hexopyranosyl]oxy], reference compound]			recognized to decrease, though not so strong	almost no viral generation was recognized	weakly recognized as same in the control group	approximately ½	viral proliferation at 300 μM was observed	exhibited suppression of viral production depending upon drug concentration	formation of MGC was slightly recognized	the suppression of tyrosine kinase Hck protein was observed, though not so strong	
CCC(O)C(C)(O)C1OC(=O)C(C)C(OC2CC(C)(OC)C(O)C(C)O2)C(C)C(OC2OC(C)CC(NC)C2O)C2(C)CC(C)=C(O2)C1C (stereo not shown) [EM703, de(3′-N-methyl)-8,9-anhydro-pseudoerythromycin A 6,9-hemiketal]			significantly decreased	almost no viral generation was recognized	promotion of tyrosine phosphorylation of ERK1/2 was recognized	almost no p24 was detected	viral proliferation at 300 μM was observed	concentration dependent manner	no cytopathic effect such as MCG formation was observed	strongly suppressed	inhibited almost completely the proliferation of virus
